PubChem BioAssay AID651874 (Southern Research Specialized Biocontainment Screening …, 2012)

System: VEEV TrD infected cells, viral cytopathic effect inhibition
Test: VEEV TrD cytopathic effect inhibition, confirmation, cell-based, Trinidad donkey strain, set 2 (AID 651874)

**Q.** With CCN1CCN(C)CC1=Nc1ccc([N+](=O)[O-])cc1C(=O)Nc1ccccc1 as the compound, how does the IC50 read?
**A.** The IC50 was 34 nM.

**Q.** For COc1ccc(NC(=O)c2cc([N+](=O)[O-])ccc2N=C2CN(C)CCN2C)cc1, which IC50 is on record?
**A.** The IC50 was 45 nM.

**Q.** How did the IC50 turn out when CN1CCN(C)C(=Nc2ccc([N+](=O)[O-])cc2C(=O)Nc2ccccc2F)C1 was run?
**A.** Its IC50 is 158 nM.

**Q.** With CNCCCN(C)Cc1nc2ccc([N+](=O)[O-])cc2c(=O)n1-c1ccccc1 as the compound, how does the IC50 read?
**A.** Its IC50 is 405 nM.

**Q.** Which IC50 does the source give for CCN1CCN(Cc2nc3ccc(C#N)cc3c(=O)n2-c2ccccc2)CC1 here?
**A.** The IC50 was 1090 nM.

**Q.** How did the IC50 turn out when O=c1c2cc([N+](=O)[O-])ccc2nc(CN2CCNCC2)n1-c1ccccc1F was run?
**A.** Its IC50 is 148 nM.

**Q.** How did the IC50 turn out when CCN1CCN(Cc2nc3ccc([N+](=O)[O-])cc3c(=O)n2-c2cccc(F)c2)CC1 was run?
**A.** The IC50 was 278 nM.

**Q.** CCN1CCN(Cc2nc3ccc([N+](=O)[O-])cc3c(=O)n2-c2ccccc2F)CC1 was tested. Which IC50 did it give?
**A.** Its IC50 is 557 nM.

**Q.** CN1CCN(C)C(=Nc2ccc([N+](=O)[O-])cc2C(=O)Nc2ccccc2)C1 was tested. Which IC50 did it give?
**A.** Its IC50 is 40.1 nM.

**Q.** How did the IC50 turn out when O=c1c2cc([N+](=O)[O-])ccc2nc(CN2CCNCC2)n1-c1ccccc1 was run?
**A.** The IC50 was 86 nM.

**Q.** COc1ccc(-n2c(CN3CCNCC3)nc3ccc([N+](=O)[O-])cc3c2=O)cc1 was tested. Which IC50 did it give?
**A.** Its IC50 is 96.6 nM.

**Q.** CN1CCN(Cc2nc3ccc([N+](=O)[O-])cc3c(=O)n2-c2ccccc2F)CC1 was tested. Which IC50 did it give?
**A.** Its IC50 is 139 nM.

**Q.** How did the IC50 turn out when CN1CCN(C)C(=Nc2ccc(C#N)cc2C(=O)Nc2cccc(F)c2)C1 was run?
**A.** Its IC50 is 823 nM.

**Q.** CN1CCN(C)C(=Nc2cc(Cl)c(C#N)cc2C(=O)Nc2ccccc2)C1 was tested. Which IC50 did it give?
**A.** The IC50 was 113 nM.

**Q.** How did the IC50 turn out when COc1cccc(-n2c(CN3CCNCC3)nc3ccc([N+](=O)[O-])cc3c2=O)c1 was run?
**A.** Its IC50 is 5630 nM.

**Q.** How did the IC50 turn out when CCN1CCN(Cc2nc3ncc([N+](=O)[O-])cc3c(=O)n2-c2ccccc2)CC1 was run?
**A.** The IC50 was 3080 nM.

**Q.** For CCN1CCN(Cc2nc3ccc([N+](=O)[O-])cc3c(=O)n2-c2ccccc2)CC1, which IC50 is on record?
**A.** Its IC50 is 241 nM.

**Q.** Which IC50 does the source give for O=c1c2cc([N+](=O)[O-])ccc2nc(CN2CCNCC2)n1-c1ccsc1 here?
**A.** The IC50 was 905 nM.

**Q.** With CCN1CCN(Cc2nc3ccc([N+](=O)[O-])cc3c(=O)n2-c2ccc(F)cc2)CC1 as the compound, how does the IC50 read?
**A.** Its IC50 is 605 nM.

**Q.** With CN1CCN(C)C(=Nc2ccc(C#N)cc2C(=O)Nc2ccccc2)C1 as the compound, how does the IC50 read?
**A.** The IC50 was 319 nM.
